The source of these data is ChEMBL document CHEMBL5108027, “An unanticipated discovery of novel naphthalimidopropanediols as potential broad-spectrum antibacterial members” (Eur J Med Chem, 2022).

The subject of series [1] is Staphylococcus aureus. The series is described as follows: Antibacterial activity against methicillin-resistant Staphylococcus aureus N315 measured by Muller-Hinton broth based microdilution assay. In kind it is functional.
Series [2] has as its system Enterococcus faecalis. Nature of the series: Antibacterial activity against Enterococcus faecalis measured by Muller-Hinton broth based microdilution assay. In kind it is functional. A general note: In broth dilution the organism is exposed to a series of concentrations in liquid medium.
The subject of series [3] is Staphylococcus aureus. The series is described as follows: Antibacterial activity against Staphylococcus aureus measured by Muller-Hinton broth based microdilution assay. Format: functional.
In series [4] the test system is Staphylococcus aureus. The series is described as follows: Antibacterial activity against Staphylococcus aureus ATCC 25923 measured by Muller-Hinton broth based microdilution assay. In kind it is functional.
The subject of series [5] is Staphylococcus aureus. The series is described as follows: Antibacterial activity against Staphylococcus aureus ATCC 29213 measured by Muller-Hinton broth based microdilution assay. In kind it is functional.
Series [6] relates to Klebsiella pneumoniae. Nature of the series: Antibacterial activity against Klebsiella pneumoniae measured by Muller-Hinton broth based microdilution assay. In kind it is functional.
The subject of series [7] is Escherichia coli. Nature of the series: Antibacterial activity against Escherichia coli measured by Muller-Hinton broth based microdilution assay. In kind it is functional.
The subject of series [8] is Pseudomonas aeruginosa. Nature of the series: Antibacterial activity against Pseudomonas aeruginosa measured by Muller-Hinton broth based microdilution assay. In kind it is functional.
Series [9] deals with Acinetobacter baumannii. Nature of the series: Antibacterial activity against Acinetobacter baumannii measured by Muller-Hinton broth based microdilution assay. In kind it is functional.
Series [10] relates to Pseudomonas aeruginosa. The series is described as follows: Antibacterial activity against Pseudomonas aeruginosa ATCC 27853 measured by Muller-Hinton broth based microdilution assay. In kind it is functional.
Series [11] relates to Escherichia coli. Nature of the series: Antibacterial activity against Escherichia coli ATCC 25922 measured by Muller-Hinton broth based microdilution assay. Format: functional.
Series [12] has as its system Staphylococcus aureus. The series is described as follows: Antibacterial activity against Staphylococcus aureus assessed as fold increase in MIC measured after 16 passages by resistance development assay. Format: functional.
Series [13] concerns Pseudomonas aeruginosa. Nature of the series: Antibacterial activity against Pseudomonas aeruginosa assessed as fold increase in MIC measured after 16 passages by resistance development assay. Format: functional.
Series [14] is described as follows: Hemolytic activity in human RBC measured after 1 hr. Format: toxicity, cell-based, Erythrocyte. As to conditions: human red blood cells (erythrocytes).
Series [15] is described as follows: Selectivity ratio of HC50 for hemolytic activity in human RBC to MIC for antibacterial activity against Pseudomonas aeruginosa. As to conditions: human red blood cells (erythrocytes). In kind it is toxicity.
A short description of series [16]: Hemolytic activity in human RBC assessed as hemolytic rate at 2 to 512 ug/ml and measured after 1 hr. Format: toxicity, cell-based, Erythrocyte. As to conditions: human red blood cells (erythrocytes), at 2 to 512 µg/mL, dose 2-512 µg/ml, read-out: Activity.
Series [17] has as its system Pseudomonas aeruginosa. Nature of the series: Antibacterial activity against Pseudomonas aeruginosa measured after 16 passages by resistance development assay. In kind it is functional, organism-based.
Series [18] deals with Pseudomonas aeruginosa. The series is described as follows: Inhibition of bacterial growth of Pseudomonas aeruginosa at 1 to 2 times MIC. Format: functional.
Series [19] relates to Pseudomonas aeruginosa. The series is described as follows: Bactericidal activity against Pseudomonas aeruginosa assessed as reduction in number of colonies at 0.5 to 2 times MIC measured within 6 hrs by time-kill assay. Format: functional, organism-based.
Series [20] relates to Pseudomonas aeruginosa. The series is described as follows: Induction of membrane depolarization in Pseudomonas aeruginosa at 0.5 to 2 times MIC measured upto 1 hr by DiSC35 dye-based fluorescence assay. In kind it is functional, organism-based.
Series [21] concerns Pseudomonas aeruginosa. Nature of the series: Induction of outer membrane permeabilization in Pseudomonas aeruginosa preincubated for 30 mins at 1 to 8 times MIC measured by NPN fluorescent dye based assay. Format: functional, organism-based.
Series [22] relates to Pseudomonas aeruginosa. Nature of the series: Induction of inner membrane permeabilization in Pseudomonas aeruginosa by measuring increase in fluorescence intensity at 1 to 8 times MIC by calcein-AM/PI staining based fluorescence analysis. In kind it is functional, organism-based.
In series [23] the test system is Pseudomonas aeruginosa. The series is described as follows: Disruption of membrane integrity in Pseudomonas aeruginosa at 8 times MIC by calcein-AM/PI staining based fluorescence analysis. In kind it is functional, organism-based.
Series [24] relates to Pseudomonas aeruginosa. Nature of the series: Disruption of membrane integrity in Pseudomonas aeruginosa assessed as increase in nucleic acid leakage by measuring increase in absorbance 1 to 8 times MIC measured for 6 hrs by spectrophotometry. Format: functional, organism-based.
The subject of series [25] is Pseudomonas aeruginosa. Nature of the series: Disruption of membrane integrity in Pseudomonas aeruginosa assessed as increase in protein leakage by measuring increase in absorbance 1 to 8 times MIC measured for 6 hrs by Bradford assay. In kind it is functional, organism-based.
In series [26] the test system is Pseudomonas aeruginosa. Nature of the series: Antibacterial activity against Pseudomonas aeruginosa assessed as reduction in LDH activity at 1 to 8 times MIC measured after 6 hrs by microplate reader method. In kind it is functional. More on the design: scale not given: the % may be the effect or the level left.
For series [27], the system named is Pseudomonas aeruginosa. The series is described as follows: Induction of oxidative stress in Pseudomonas aeruginosa assessed as increase in intracellular ROS level at 1 to 8 times MIC measured after 6 hrs by DCFH-DA staining method. Format: functional, organism-based.
For series [28], the system named is Pseudomonas aeruginosa. Nature of the series: Induction of oxidative stress in Pseudomonas aeruginosa assessed as decrease in GSH activity at 1 to 8 times MIC measured after 6 hrs by Ellman's assay. Format: functional, organism-based. Background: Ellman's reagent forms a yellow product with free thiols.
The subject of series [29] is Pseudomonas aeruginosa. Nature of the series: Antibacterial activity against Pseudomonas aeruginosa assessed as reduction in metabolic activity at 1 to 8 times MIC measured after 6 hrs by Alamar blue assay. In kind it is functional, organism-based.
Series [30] deals with Pseudomonas aeruginosa. Nature of the series: Inhibition of biofilm formation in Pseudomonas aeruginosa at 1 to 8 times MIC measured after 24 hrs by crystal violet staining method. In kind it is functional, organism-based.
The subject of series [31] is Pseudomonas aeruginosa. The series is described as follows: Antibiofilm activity in Pseudomonas aeruginosa at 1 to 8 times MIC measured by Alamar blue assay. Format: functional, organism-based. In general terms: Alamar Blue is a resazurin reagent that responds to reducing activity.
The subject of series [32] is L929. Nature of the series: Cytotoxicity against mouse L929 cells assessed as effect on cell growth at 0.25 to 0.5 ug/ml incubated for 24 hrs by MTT assay. In kind it is toxicity, cell-based. The conditions noted are these: l929, 24 h, dose 0.25-0.5 µg/ml.

Values after ≈ are worked out from the molar mass of the structure shown. Active and inactive are the calls of the source. The calls are words filed in the database; no cut-off is given here. Some results are limits rather than exact numbers.

By MIC is commonly meant the lowest concentration that inhibits growth of the organism. `CCn1cc(C(=O)O)c(=O)c2cc(F)c(N3CCNCC3)cc21` [NORFLOXACIN]: the minimum inhibitory concentration (MIC) in [1] was found to be 16 µg/mL (≈ 50.1 µM); in [2], 8 µg/mL (≈ 25.1 µM); in [3] it was 8 µg/mL (≈ 25.1 µM); in series [4], 16 µg/mL (≈ 50.1 µM); in series [5], 16 µg/mL (≈ 50.1 µM); in [6], 4 µg/mL (≈ 12.5 µM). The minimum inhibitory concentration (MIC) came to 2 µg/mL (≈ 6.26 µM) in series [7]; 4 µg/mL (≈ 12.5 µM) in series [8]; 1 µg/mL (≈ 3.13 µM) in series [9]; 2 µg/mL (≈ 6.26 µM) in [10]; 4 µg/mL (≈ 12.5 µM) in [11]. The “fold change (FC)” value in series [12] was determined as 64; in [13], 128.

What is called HC50 is the concentration that lyses half of the red blood cells. On to `COc1ccc(/C=N/Nc2ccc3c4c(cccc24)C(=O)N(C(CO)CO)C3=O)cc1`, for which the minimal inhibitory concentration (MIC) in [1] is 64 µg/mL (≈ 153 µM); in series [2], 64 µg/mL (≈ 153 µM); in [3], 32 µg/mL (≈ 76.3 µM); in [4], 64 µg/mL (≈ 153 µM); in series [5], 128 µg/mL (≈ 305 µM); in series [6] it was 32 µg/mL (≈ 76.3 µM). For the same molecule, the MIC in series [7] stood at 16 µg/mL (≈ 38.1 µM); in [8] it was 0.5 µg/mL (≈ 1.19 µM); in [9], 64 µg/mL (≈ 153 µM); in series [10], 2 µg/mL (≈ 4.77 µM); in series [11], 64 µg/mL (≈ 153 µM). The molecule also displayed a 50% haemolytic concentration (HC50) at 1 h in series [14] of over 1000 µg/mL. Also, in series [15], the selectivity ratio was over 2000. Besides, the hemolysis at 1 h in series [16] is under 5%. Moreover, the result in series [17], in series [19], in series [20], in series [21], in series [22] and in series [23] was Active. In addition, the outcome in [24], in series [25], in series [27], in [28], in series [29] and in series [31] was Active. Moreover, the inhibition result in series [18] and in series [30] was “Active” each time. Further, the Activity in series [26] is given as 70%; in series [32], “Non-Toxic”.
